Assay results as given in patent publication EP0751957B1, “PEPTIDE FRAGMENTS OF MICROBIAL STRESS PROTEINS AND PHARMACEUTICAL COMPOSITION MADE THEREOF FOR THE TREATMENT AND PREVENTION OF INFLAMMATORY DISEASES” (priority 1994, dated 2004).
“Also recorded” adds a separate entry of the source.

Legend:
[1] = test system: primed lymph node cells (PLNC); test: T cell proliferation assay, PLNC from peptide-immunised rats; assay type: cell-based, Lewis rats; details: for CPM PLNC: in vitro peptide 20 µg/ml
Protocol: (§1) Immunisations with synthetic peptides and primed lymph node populations: Rats were immunised with 50 µg of synthetic peptide in PBS/DDA in each hind footpad (i.e. 50 µg/footpad, 100 µg/rat). Ten days later, draining popliteal lymph nodes were removed, disaggregated, washed three times and used as a source of primed lymph node cells (PLNC). In some experiments, PLNC were derived as pooled inguinal and popliteal lymph nodes from AA rats 35-42 days post Mt immunisation.
(§2) T cell proliferation assays: PLNC were cultured in triplicate in 200 µl flat bottom microtitre wells (Costar) at 2 x 10^5 cells per well with or without antigen. In initial experiments PLNC were tested for responsiveness to individual peptides at concentrations of 5 and 20 µg/ml, and Mt, hsp65 and PPD over a range of concentrations. Concanavalin A (2 µg/ml) was used as a positive control for T cell proliferation. Cultures were incubated for 96 h at 37°C in a humidified atmosphere of 5% CO2. Cultures were pulsed for the final 16 h with [^3H] TdR (Amersham, U.K., 1 uCi/well) and TdR uptake measured using a liquid scintillation β counter. Assays using T cell lines were performed as above using 2 x 10^4 line cells per well with irradiated (30 Gy) syngeneic accessory cells (either 3 x 10^5 splenocytes/well or 10^6 thymocytes/well). Results are expressed as mean counts per minute (cpm) of triplicate cultures. In experiments where responses to Ag were low, responses were considered significant if the stimulation index (S.I. = mean cpm with Ag - mean cpm without Ag) was greater than two and Student's t tests gave p < 0.01.
To determine whether immunisation of rats with synthetic peptides was effective at priming for T cell reactivity to hsp65 epitopes, in vitro proliferative responses following immunisation with 100 µg of peptide each containing individual T cell epitopes were examined. PLNC isolated ten days after immunisation were tested for response to the immunising peptide, overlapping peptides and to hsp65 (Table II). PLNC responses were observed after immunisation with seven of the nine peptides. Responses were not seen after immunisation with peptides 386-400 and 511-525.
(§3) T cell responses by immunisation with hsp65 peptides. Rats were immunised with synthetic peptides containing individual hsp65 epitopes (100 µg peptide/DDA per rat). Ten days later PLNC were isolated and tested for responses to overlapping peptides (20 µg/ml). Peptide-specific T cell lines were generated by bulk in vitro stimulation of PLNC with immunising peptide. Lines were tested for responses to overlapping peptides (10 µg/ml). […] Results are expressed as mean cpm of triplicate cultures. All SEM were less than 20%.

[2] = test system: Peptide-specific T cell lines; test: T cell proliferation assay, peptide-specific T cell lines from peptide-immunised rats; assay type: cell-based, Lewis rats; details: for CPM T Cell Line: in vitro peptide 10 µg/ml
Protocol: as §2
T cell lines: T cell lines with specificity for mycobacterial hsp65 or peptides were generated by bulk stimulation of either hsp65-PLNC or Mt-PLNC. PLNC were cultured at 5 x 10^6/ml in culture medium supplemented with 2% normal rat serum (NRS) in the presence of 10 µg/ml Ag. After three days viable cells were harvested using a ficoll-isopaque gradient and cultured for a further four days in culture medium + 5% FCS and 5% TCGF (Con A-activated rat spleen supernatant). Seven days after initial stimulation lines were restimulated with irradiated spleen accessory cells and 10 µg/ml Ag in culture medium + NRS. Lines were maintained ir. this seven day restimulation cycle. Short term epitope-specific T cell lines were also generated from rats immunised with synthetic peptides. Peptide-PLNC were cultured as above in the presence of 10 µg/ml peptide.
Bulk stimulation generated T cell lines to eight of the nine peptides tested. These eight lines were tested for specificity after four in vitro restimulations (Table II). All responded to the immunising peptide and, to some extent, to hsp65.
as §3

hsp65-PLNC = test: T cell proliferation assay, hsp65-PLNC; assay type: cell-based, Lewis rats; details: PLNC from hsp65-immunised rats; peptides 5 and 20 µg/ml
Protocol: Immunisations and primed lymph node populations: Rats were immunised with either Mt or hsp65. Mt was suspended at 5 mg/ml in IFA or DDA and 100 µl injected in each hind footpad (i.e. 500 µg/footpad, 1 mg/rat). Hsp65 (1 mg/ml in PBS) was mixed 1:1 with DDA and 100 µl injected (i.e. 50 µg/footpad, 100 µg/rat). Ten to 21 days later, draining popliteal lymph nodes were removed, disaggregated, washed three times and used as a source of primed lymph node cells (PLNC). In control experiments splenocytes and lymph nodes from unimmunised rats and PLNC from rats immunised with IFA or DDA/PBS alone were used.
as §2
Hsp65-PLNC were analysed for responsiveness to a panel of peptides covering the entire sequence of hsp65 (Fig. 3a). […] In terms of magnitude of response, three regions of the molecule (residues 176-190, 211-230 and 221-240) appeared to contain the "dominant" T cell epitopes, while regions 86-100. 251-270, 396-410 and 506-525 contained "subdominant" or minor epitopes.

adjuvant arthritis = test: Adjuvant arthritis (AA) induced with Mt in IFA, clinical arthritis score; assay type: in vivo, Lewis rats
Protocol: (§4) Induction and clinical assessment of experimental arthritis: Arthritis was induced by a single intradermal injection in the base of the tail. AA was induced with 0.5 mg Mt suspended in 100 µl IFA. CP20961 arthritis was induced with 2 mg CP20961 in 100 µl light mineral oil (Sigma). Rats were examined daily for clinical signs of arthritis. Severity of arthritis was assessed by scoring each paw from zero to four based on degree of swelling, erythema and deformity of the joints. Thus the maximum possible arthritis score was 16.
(§5) Modulation of arthritis with hsp65 peptides and epitope-specific T cell lines: Synthetic peptides corresponding to eight T cell epitopes present in mycobacterial hsp65 were tested for protective effects on arthritis development. Rats were immunised with 100 µg of individual peptide seven days prior to arthritis induction. Peptides were immunised in each hind footpad in 10 mg/ml DDA (50 µl/pad). Control rats received only PBS/DDA. Epitope-specific T cell lines were also tested for protective activity by intravenous administration of lines at the time of arthritis induction. T cell lines were restimulated in vitro with irradiated spleen APC and specific peptide. Four days later T cell blasts were harvested by ficoll gradient, washed and applied to a second ficoll gradient to remove any contaminating APC. T cells were washed twice in wash medium and twice in PBS and finally suspended at 2.5x10^7/ml in PBS. Immediately prior to injection of Mt, 200 µl (i.e. 5x10^6) T cells were injected i.v. in the tail vein.
The effects of preimmunisation with synthetic peptides containing individual epitopes on the development of AA were analysed (Fig. 7). The eight peptides which primed for epitope specific T cells were tested. Rats were immunised with 100 µg of peptide 7 days prior to AA-induction with Mt.

T cell = T cell proliferative responses in humans (initial testing); assay type: cell-based; details: some autoimmune disease patients
Description: Thus, already the rat-defined T cell epitopes themselves could be used for therapeutical intervention in some individuals (certain HLA types).

[3] = test system: CP20961-induced arthritis; test: CP20961-induced arthritis, clinical arthritis score; assay type: in vivo, Lewis rats; details: 100 µg peptide in DDA 7 days prior to 2 mg CP20961 in 100 µl mineral oil i.d.
Protocol: as §4
as §5, with “T cells were washed twice in wash medium and twice in PBS and finally suspended at 2.5x10^7/ml in PBS. Immediately prior to injection of Mt, 200 µl (i.e. 5x10^6) T cells were injected i.v. in the tail vein.” left out

[4] = test system: PLNC from preimmunised rats; test: T cell proliferation assay, PLNC of peptide-preimmunised AA rats 42 days after Mt; assay type: cell-based, Lewis rats; details: rats preimmunised with the same peptide; peptide 20µg/ml
Protocol: as §1, §2
PLNC from preimmunised rats were tested for responsiveness to hsp65 epitopes 42 days after Mt administration (Fig. 8). […] Responses to peptide 176-190 containing the AA-associated epitope were found in all PLNC populations (and enhanced after 176-190 preimmunisation) with one exception.

[5] = test system: T cell lines generated from hsp65-immunised rats; test: T cell proliferation assay, epitope-specific T cell lines generated from hsp65-immunised rats; assay type: cell-based, Lewis rats; details: Line H.52
Protocol: as §2, with “In experiments where responses to Ag were low, responses were considered significant if the stimulation index (S.I. = mean cpm with Ag - mean cpm without Ag) was greater than two and Student's t tests gave p < 0.01.” left out
T cell lines were generated by restimulation of hsp65-PLNC with individual synthetic peptides. For epitopes where responses had been detected to two overlapping peptides, the line was generated using the peptide that induced strongest proliferation of hsp65-PLNC (e.g. for epitope 216-225, peptide 211-225 was used). […]

[6] = test system: hsp65-specific T cell line; test: T cell proliferation assay, hsp65-specific T cell line; assay type: cell-based, Lewis rats; details: short term lines from ten day hsp65-PLNC, seven days after first restimulation
Protocol: as §2
T cell lines: T cell lines with specificity for mycobacterial hsp65 or peptides were generated by bulk stimulation of either hsp65-PLNC or Mt-PLNC. PLNC were cultured at 5 x 10^6/ml in culture medium supplemented with 2% normal rat serum (NRS) in the presence of 10 µg/ml Ag. […]

[7] = 100 µg peptide in DDA, hind footpads, 7 days prior to AA induction with Mt

## peptide 86-100: synthetic 15mer, sequence 86-100 of SEQ ID No.1 (mycobacterial hsp65) (DGTTTATVLAQALVR; UniProt P9WPE7 86-100, looked up, fragment)
[1]; PLNC 10 days after immunisation with peptide 86-100 (100 µg/DDA), mean of triplicates
  CPM PLNC: 57925 cpm
[2]; T cell line from 86-100-immunised PLNC
  CPM T Cell Line: 49422 cpm
hsp65-PLNC
  hsp65-PLNC proliferative response to peptide: subdominant
Adjuvant arthritis; [7]
  protection against AA development after peptide preimmunisation: moderate protection; also recorded: moderate effect
T cell
  T cell proliferative responses in autoimmune disease patients: capable of inducing T cell proliferative responses

## peptide 180-188: synthetic 9mer, minimal AA-associated epitope 180-188 of mycobacterial hsp65 (TFGLQLELT; UniProt P9WPE7 180-188, looked up, fragment) [reference compound]
[1]; PLNC 10 days after immunisation with peptide 176-190 (100 µg/DDA)
  CPM PLNC: 7859 cpm
[2]; T cell line from 176-190-immunised PLNC
  CPM T Cell Line: 23275 cpm
hsp65-PLNC
  hsp65-PLNC proliferative response to peptide: induce responses, but at a lower level

## peptide 211-225: synthetic 15mer, residues 211-225 of mycobacterial hsp65; control peptide in arthritis models
[1]; PLNC 10 days after immunisation with peptide 211-225 (100 µg/DDA)
  CPM PLNC: 39765 cpm
[2]; T cell line from 211-225-immunised PLNC
  CPM T Cell Line: 121978 cpm
Adjuvant arthritis; [7]
  protection against AA development after peptide preimmunisation: did not influence AA development
[3]
  protection against CP20961-induced arthritis after peptide preimmunisation: did not
[4]
  PLNC response to the immunising peptide 42 days after Mt administration: strong responses

## peptide 256-270: synthetic 15mer, sequence 256-270 of SEQ ID No.1 (mycobacterial hsp65)
[1]; PLNC 10 days after immunisation with peptide 256-270 (100 µg/DDA)
  CPM PLNC: 16423 cpm
[2]; T cell line from 256-270-immunised PLNC
  CPM T Cell Line: 69037 cpm
[2]; irradiated syngeneic spleen APC
  response of the line generated against M.256-270 (line P.m52): responded
[5]
  level of proliferation relative to the rat peptide: five to ten fold higher
Adjuvant arthritis; [7]
  protection against AA development after peptide preimmunisation: striking protective effect; also recorded: strong protection; also recorded: clear protective effects
Adjuvant arthritis; 100 µg peptide in DDA, hind footpads, 7 days prior to AA induction with Mt, 24 rats in five experiments, maximum possible score 16
  mean maximum arthritis score: 1.7
Adjuvant arthritis; 100 µg peptide in DDA, hind footpads, 7 days prior to AA induction with Mt, listed as hsp65 256-270
  protection against AA development after peptide preimmunisation: Protection was observed
Adjuvant arthritis; of the 24 rats preimmunised with peptide, signs milder than in control rats
  rats that developed clinical signs of arthritis: twelve
Adjuvant arthritis; preimmunised rats that developed AA
  permanent joint deformities: remarkably free of permanent deformities
[3]
  protection against CP20961-induced arthritis after peptide preimmunisation: strongly protected
[4]
  PLNC response to the immunising peptide 42 days after Mt administration: marginal PLNC responses
T cell
  T cell proliferative responses in autoimmune disease patients: capable of inducing T cell proliferative responses

## peptide 386-400: synthetic 15mer, residues 386-400 of mycobacterial hsp65
[1]; 100 µg peptide, PLNC isolated ten days after immunisation
  PLNC responses after immunisation with the peptide: not seen
hsp65-PLNC
  hsp65-PLNC proliferative response to peptide: failed to stimulate
[6]
  hsp65-specific T cell line response to peptide: did stimulate
